Key:
[1] = tested on: LL/2 lung cancer tumor endothelial cells; experiment: Lung LL2 ex vivo model of tumor angiogenesis; type: cell-based, mouse; details: for 48 hrs (morphology observations): LL/2 tumor endothelial cells; for Cell death: drug treatment for two days, ratio of red area to total endothelial cell area; for cytotoxicity at 40 µM / cytotoxicity at 20 µM: Mus musculus, Endothelial cell, 48 h, read-out: Cell death
Outline: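 Live/dead imaging with FDA and PI, taken e.g. 48 h post-drug under fixed channel settings, measures treatment effects on endothelial cells sprouting from Lewis lung tumor explants. Explants were seeded in Matrigel drops and grown ~4 days in endothelial growth medium, 37 °C, 5% CO2, before dosing.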

[2] = tested on: CT26.CL25 colon cancer tumor endothelial cells; experiment: Colon CT26 ex vivo model of tumor angiogenesis; type: cell-based, mouse; details: for cytotoxicity at 40 µM / cytotoxicity at 10 µM: Mus musculus, Endothelial cell, 48 h, read-out: Cell death
Outline: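 Cell death was read by FDA (live, green) and PI (dead, red) fluorescence imaging, e.g. 48 h after treatment. Treatment began once endothelial cells had grown out of Matrigel-embedded CT26 colon tumor fragments, typically after 7 days of culture in endothelial growth medium at 37 °C.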

SMILES | 48 hrs (morphology observations) ([1]; 40 μm) | Cell death ([1]; 40 μm) [%] | 48 hrs (morphology observations after 48 hours) ([2]; Conc. 40 μm) | cytotoxicity at 40 µM [2] [%] | cytotoxicity at 40 µM [1] [%] | 48 hrs (morphology observations after 48 hours) ([2]; Conc. 10 μm) | cytotoxicity at 10 µM [2] [%] | 48 hrs (morphology observations) ([1]; 20 μm) | Cell death ([1]; 20 μm) [%] | cytotoxicity at 20 µM [1] [%]
CCCCOc1ccc(S(=O)(=O)c2cnc3ccc([S+](C)[O-])cc3c2N2CCCN(CCN3CCCC3)CC2)cc1 (stereo not drawn) [Compound 210] | 0 | 50 | *** (100% of endothelial cells vesicularize in cell shape) | 70 |  |  |  |  |  | 
CCCCOc1ccc(S(=O)(=O)c2cnc3ccc(C(=O)OCC)cc3c2N2CCC(N3CCCN(C)CC3)CC2)cc1 [Compound 211] | **** (100% of endothelial cells vesicularize in cell shape and look flattened in morphology (indicating disintegration of the cell body)) |  | **** (100% of endothelial cells vesicularize in cell shape and look flattened in morphology (indicating disintegration of the cell body)) | 100 | 100 |  |  |  |  | 
CCCCOc1ccc(S(=O)(=O)c2cnc3ccc(C(=O)OCC)cc3c2N2CCC(N3CCOCC3)CC2)cc1 [Compound 212] |  | 50 | 0 | 10 |  |  |  |  |  | 
CCCCOc1ccc(S(=O)(=O)c2cnc3ccc(C(=O)OCC)cc3c2N2CCC(N3CCN(CCO)CC3)CC2)cc1 [Compound 214] | **** (100% of endothelial cells vesicularize in cell shape and look flattened in morphology (indicating disintegration of the cell body)) |  | **** (100% of endothelial cells vesicularize in cell shape and look flattened in morphology (indicating disintegration of the cell body)) | 100 | 100 |  |  |  |  | 
CCCCOc1ccc(S(=O)(=O)c2cnc3ccc(C(=O)OCC)cc3c2N2CCC(N3CCC(c4ccccc4)CC3)CC2)cc1 [Compound 215] | 0 |  | 0 | 20 | 30 |  |  |  |  | 
CCCCOc1ccc(S(=O)(=O)c2cnc3ccc(C(=O)OCC)cc3c2N2CCC(N3CCC(N4CCCCC4)CC3)CC2)cc1 [Compound 216] | **** (100% of endothelial cells vesicularize in cell shape and look flattened in morphology (indicating disintegration of the cell body)) |  | **** (100% of endothelial cells vesicularize in cell shape and look flattened in morphology (indicating disintegration of the cell body)) | 100 | 100 |  |  |  |  | 
CCCCCCCOc1ccc(S(=O)(=O)c2cnc3ccc(SC)cc3c2N2CCCN(C)CC2)cc1 [Compound 218] | **** (100% of endothelial cells vesicularize in cell shape and look flattened in morphology (indicating disintegration of the cell body)) | 100 | *** (100% of endothelial cells vesicularize in cell shape) | 90 |  |  |  |  |  | 
CCCCCCCOc1ccc(S(=O)(=O)c2cnc3ccc(SC)cc3c2N2CCC(N3CCCCC3)CC2)cc1 [Compound 219] | **** (100% of endothelial cells vesicularize in cell shape and look flattened in morphology (indicating disintegration of the cell body)) | 60 | *** (100% of endothelial cells vesicularize in cell shape) | 90 |  |  |  |  |  | 
CCCCCCCOc1ccc(S(=O)(=O)c2cnc3ccc([S+](C)[O-])cc3c2N2CCCN(C)CC2)cc1 (stereo not drawn) [Compound 220] | **** (100% of endothelial cells vesicularize in cell shape and look flattened in morphology (indicating disintegration of the cell body)) |  | **** (100% of endothelial cells vesicularize in cell shape and look flattened in morphology (indicating disintegration of the cell body)) | 100 | 100 |  |  |  |  | 
CCCCCCCOc1ccc(S(=O)(=O)c2cnc3ccc([S+](C)[O-])cc3c2N2CCC(N3CCCCC3)CC2)cc1 (stereo not drawn) [Compound 221] | **** (100% of endothelial cells vesicularize in cell shape and look flattened in morphology (indicating disintegration of the cell body)) |  | **** (100% of endothelial cells vesicularize in cell shape and look flattened in morphology (indicating disintegration of the cell body)) | 100 | 100 |  |  |  |  | 
CCCCOc1ccc(S(=O)(=O)c2cnc3ccc([S+](C)[O-])cc3c2N2CCC(N3CCC(O)(c4ccccc4)CC3)CC2)cc1 (stereo not drawn) [Compound 238] | *** (more than 50% but less than 100% of endothelial cells vesicularize in cell shape) |  |  |  |  | 0 | 10 |  |  | 
CCCCOc1ccc(S(=O)(=O)c2cnc3ccc([S+](C)[O-])cc3c2N2CCC(N3CCCN(C)CC3)CC2)cc1 (stereo not drawn) [Compound 241] |  | 40 |  |  |  | 0 | 0 |  |  | 
CCCCCCCOc1ccc(S(=O)(=O)c2cnc3ccc([S+](C)[O-])cc3c2N2CCC(N3CCN(C)CC3)CC2)cc1 (stereo not drawn) [Compound 253] |  |  |  |  |  | *** (100% of endothelial cells vesicularize in cell shape) | 80 | **** (100% of endothelial cells vesicularize in cell shape and look flattened in morphology (indicating disintegration of the cell body)) | 100 | 
CCCCCCCOc1ccc(S(=O)(=O)c2cnc3ccc([S+](C)[O-])cc3c2N2CCC(N3CCCC(O)C3)CC2)cc1 (stereo not drawn) [Compound 254] |  |  |  |  |  | ** (more than 50% but less than 100% of endothelial cells vesicularize in cell shape) | 40 | *** (more than 50% but less than 100% of endothelial cells vesicularize in cell shape) | 100 | 
CCCCCCCOc1ccc(S(=O)(=O)c2cnc3ccc([S+](C)[O-])cc3c2N2CCCN(CCN3CCCCC3)CC2)cc1 (stereo not drawn) [Compound 255] |  |  |  |  |  | 0 | 0 | * (50% or less of cells vesicularize in cell shape) | 10 | 
CCCCCCCOc1ccc(S(=O)(=O)c2cnc3ccc([S+](C)[O-])cc3c2N2CCC(N3CCCN(C)CC3)CC2)cc1 (stereo not drawn) [Compound 256] |  |  |  |  |  | *** (100% of endothelial cells vesicularize in cell shape) | 90 | **** (100% of endothelial cells vesicularize in cell shape and look flattened in morphology (indicating disintegration of the cell body)) | 100 | 
CCCCCCCOc1ccc(S(=O)(=O)c2cnc3ccc([S+](C)[O-])cc3c2N2CCC(N3CCN(CCO)CC3)CC2)cc1 (stereo not drawn) [Compound 257] |  |  |  |  |  | **** (100% of endothelial cells vesicularize in cell shape and look flattened in morphology (indicating disintegration of the cell body)) | 100 | **** (100% of endothelial cells vesicularize in cell shape and look flattened in morphology (indicating disintegration of the cell body)) |  | 100
CCCCCCCOc1ccc(S(=O)(=O)c2cnc3ccc([S+](C)[O-])cc3c2N2CCC(N3CCC(N4CCCCC4)CC3)CC2)cc1 (stereo not drawn) [Compound 258] |  |  |  |  |  | *** (100% of endothelial cells vesicularize in cell shape) | 100 | **** (100% of endothelial cells vesicularize in cell shape and look flattened in morphology (indicating disintegration of the cell body)) |  | 100
